# Results published in patent US11142504B2, “Substituted heterocycles as c-MYC targeting agents” (Northwestern University, priority 2016, dated 2021).
# Legend:
# MycCap cells = assay: Cell viability of MycCap cells; format: cell-based; conditions: Mus musculus, Myc-CaP
# PC12 cells = assay: Cell viability of PC12 cells; format: cell-based; conditions: Rattus norvegicus, PC-12; Cell viability of PC12 cells
# Protocol: PC3 prostate cancer cell line with high Myc level and PC12 pheochromocytoma tumor cell line with non functional Max protein, which is not dependent on Myc-Max complex, were phased from ATCC. Cells were plated in 96 well plate at 1000 cells per well, and Myc inhibitor 361 at various concentrations was added to the cells next day. After 3 days of treatment, fresh medium with 361 were added again, and cell viability was measured by MTS assay at day 5 after the treatment. (See FIG. 11).
# [1] = Stability in mouse liver microsomes; format: in vitro ADME; conditions: % remaining of compound after 60 min treatment with mouse liver microsomes
# Protocol: In vitro metabolism of NUCC-176242 and NUCC-176248 were tested using mouse liver microsomes and a mouse S9 fraction. (See FIG. 9).
# MYC/Max binding to DNA = MYC/Max binding to DNA (Homo sapiens, UniProt P01106); assay: Electrophoretic mobility shift assay (EMSA)
# MYC/Max binding to DNA, sequence (P01106 whole entry, species assumed): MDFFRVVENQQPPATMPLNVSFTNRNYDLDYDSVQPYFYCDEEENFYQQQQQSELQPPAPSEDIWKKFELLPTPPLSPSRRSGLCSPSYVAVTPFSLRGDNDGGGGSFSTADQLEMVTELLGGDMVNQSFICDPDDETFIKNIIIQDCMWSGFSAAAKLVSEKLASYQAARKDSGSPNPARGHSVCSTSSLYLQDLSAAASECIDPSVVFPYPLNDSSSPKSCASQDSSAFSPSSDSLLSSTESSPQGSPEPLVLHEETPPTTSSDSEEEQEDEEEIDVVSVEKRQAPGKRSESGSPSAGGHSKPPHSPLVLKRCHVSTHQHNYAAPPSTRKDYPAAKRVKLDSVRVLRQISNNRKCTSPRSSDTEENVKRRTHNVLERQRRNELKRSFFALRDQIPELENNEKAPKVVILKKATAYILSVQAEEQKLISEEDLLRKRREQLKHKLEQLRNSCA
# Protocol: We also tested our best hit compound Min9 (NUCC-0176234) and newly synthesized analogs for effects of these compounds on MYC/Max binding to DNA in electrophoretic mobility shift assays (EMSAs). (See FIG. 5a and FIG. 5b). We expected the active compounds to impair MYC/Max binding to DNA. Several structural analogs of Min9 were tested over multiple doses for inhibiting MYC-DNA binding and we observed a dose-dependent inhibition. (See FIG. 5c).
Structure (SMILES),IC50 (MycCap cells),IC50 (PC12 cells),MLM % at 60 min [1],IC50 (MYC/Max binding to DNA)
O=C1CCC(N2C(=O)c3cccc(OCc4cn(CCOCCOCCOCCOCC(=O)Nc5ccc(COc6ccc(-c7cc(C(F)(F)F)n[nH]7)c(O)c6-c6cc(C(F)(F)F)cc(C(F)(F)F)c6)cc5)nn4)c3C2=O)C(=O)N1 (stereo not drawn) [NUCC-0201203],32.4 µM,–,–,–
[N-]=[N+]=NCCOCCOCCOCC(=O)Nc1ccc(COc2ccc(-c3cc(C(F)(F)F)n[nH]3)c(O)c2-c2cc(C(F)(F)F)cc(C(F)(F)F)c2)cc1 [NUCC-0201199],3 µM,12.7 µM,–,–
Cn1nc(C(F)(F)F)cc1-c1ccc(OCc2ccc(Cl)cc2)c(-c2cncc(C(F)(F)F)c2)c1O [NUCC-0201630],15.4 µM,42.3 µM,–,–
NC(=O)c1ccc(-c2c(OCc3ccc(Cl)cc3)ccc(-c3cc(C(F)(F)F)[nH]n3)c2O)cc1 [NUCC-0198394],7.3 µM,–,–,–
N#Cc1cccc(-c2c(OCc3ccc(Cl)cc3)ccc(-c3cc(C(F)(F)F)[nH]n3)c2O)c1 [NUCC-0198398],4.3 µM,–,–,–
Cc1ccc(-c2c(OCc3ccc(Cl)cc3)ccc(-c3cc(C(F)(F)F)[nH]n3)c2O)cc1 [NUCC-0196344],6.6 µM,–,–,–
C#CCC(N=[N+]=[N-])C(=O)Nc1ccc(COc2ccc(-c3cc(C(F)(F)F)n(C)n3)c(O)c2-c2cncc(C(F)(F)F)c2)cc1 (stereo not drawn) [NUCC-0201699],24.3 µM,–,–,–
O=C(O)c1cc(-c2ccc(OCc3ccc(Cl)cc3)c(-c3cc(C(F)(F)F)cc(C(F)(F)F)c3)c2O)n[nH]1 [NUCC-0200973],68.3 µM,29.6 µM,–,–
CCc1ccc(Oc2c(-c3ccc(OCc4cccc(Cl)c4)cc3O)n[nH]c2C(F)(F)F)cc1 [NUCC-0196295],12.2 µM,–,–,–
CCc1ccc(Oc2c(-c3ccc(OCCc4cccc(C(F)(F)F)c4)cc3O)n[nH]c2C(F)(F)F)cc1 [NUCC-0176245],4.1 µM,–,–,–
Cn1nc(-c2ccc(OCc3ccc(Cl)cc3)c(-c3cc(C(F)(F)F)cc(C(F)(F)F)c3)c2O)cc1C(F)(F)F [NUCC-0196360],39.6 µM,–,–,–
CC(C)CCOc1ccc(-c2cc(C(F)(F)F)nn2C)c(O)c1-c1cncc(C(F)(F)F)c1 [NUCC-0201206],5 µM,–,–,–
CCCCOc1ccc(-c2cc(C(F)(F)F)n(C)n2)c(O)c1-c1ccc(Cl)c(C(F)(F)F)c1 [NUCC-0201227],4.5 µM,1 µM,–,–
Cn1nc(C(F)(F)F)cc1-c1ccc(OCc2ccc(Cl)cc2)c(-c2cccc(C(F)(F)F)c2)c1O [NUCC-0200974],10.2 µM,–,–,–
N#Cc1cncc(-c2c(OCc3ccc(Cl)cc3)ccc(-c3cc(C(F)(F)F)n[nH]3)c2O)c1 [NUCC-0201038],6.8 µM,18.3 µM,–,–
N#Cc1ccc(-c2c(OCc3ccc(Cl)cc3)ccc(-c3cc(C(F)(F)F)[nH]n3)c2O)cc1 [NUCC-0198391],3.4 µM,–,–,–
COc1ccc(-c2c(-c3ccc(OCc4ccc(Cl)cc4)cc3O)n[nH]c2C(F)(F)F)cc1 [NUCC-0196312],4.8 µM,–,–,–
Oc1c(-c2cc(C(F)(F)F)n[nH]2)ccc(OCCN2CCCC2)c1-c1cc(C(F)(F)F)cc(C(F)(F)F)c1 [NUCC-0201032],1 µM,11 µM,30.5%,–
COc1ccc(-c2c(-c3ccc(OCc4ccc(Cl)cc4)cc3O)n[nH]c2C(F)(F)F)cc1OC [NUCC-0196283],2.3 µM,–,–,–

Structure (SMILES),IC50 (MycCap cells),IC50 (PC12 cells),MLM % at 60 min [1],IC50 (MYC/Max binding to DNA)
CCc1c(OCc2ccc(Cl)cc2)ccc(-c2cc(C(F)(F)F)n[nH]2)c1O [NUCC-0200739],2.2 µM,19.4 µM,46.4%,–
C#CCOc1ccc(COc2ccc(-c3cc(C(F)(F)F)n[nH]3)c(O)c2-c2cc(C(F)(F)F)cc(C(F)(F)F)c2)cc1 [NUCC-0201219],9.5 µM,–,–,–
Cn1nc(-c2ccc(OCc3ccc(Cl)cc3)c(-c3ccc(F)cc3)c2O)cc1C(F)(F)F [NUCC-0196348],110 µM,–,–,–
CCOc1ncc(C(F)(F)F)cc1-c1c(OCc2ccc(Cl)cc2)ccc(-c2cc(C(F)(F)F)n[nH]2)c1O [NUCC-0201039],13.6 µM,–,–,–
CCCCCCOc1ccc(-c2cc(C(F)(F)F)n[nH]2)c(O)c1-c1cncc(C#N)c1 [NUCC-0201194],4.2 µM,59.8 µM,–,–
CC(CCOc1ccc(-c2cc(C(F)(F)F)n[nH]2)c(O)c1-c1cc(C(F)(F)F)cc(C(F)(F)F)c1)C(F)(F)F (stereo not drawn) [NUCC-0201198],2.6 µM,8.2 µM,–,–
Oc1cc(OCc2ccc(Cl)cc2)ccc1-c1n[nH]cc1-c1cc(C(F)(F)F)cc(C(F)(F)F)c1 [NUCC-0198318],4.3 µM,–,–,–
Cc1cc(C)c(-c2c[nH]nc2-c2ccc(OCc3ccc(Cl)cc3)cc2O)c(C)c1 [NUCC-0198359],7.6 µM,–,–,–
Oc1cc(OCc2ccc(Cl)cc2)ccc1-c1cc(C(F)(F)F)[nH]n1 [NUCC-0196313],4.2 µM,–,–,–
Oc1cc(OCc2ccc(Cl)cc2)ccc1-c1n[nH]cc1-c1cccc(Cl)c1 [NUCC-0196350],4.3 µM,–,–,–
CCCCCCOc1ccc(-c2cc(C(F)(F)F)nn2C)c(O)c1-c1cncc(C#N)c1 [NUCC-0201207],5.7 µM,–,52.7%,–
CCc1ccc(Oc2c(-c3ccc(OCCc4ccc(Cl)cc4)cc3O)n[nH]c2C(F)(F)F)cc1 [NUCC-0196357],6.9 µM,–,–,–
CCCCOc1ccc(-c2cc(C(F)(F)F)nn2C)c(O)c1-c1cncc(C(F)(F)F)c1 [NUCC-0201204],23 µM,–,–,–
CC(C)CCOc1ccc(-c2cc(C(F)(F)F)n[nH]2)c(O)c1-c1cncc(C#N)c1 [NUCC-0201195],14.9 µM,70.3 µM,–,–
Cn1nc(C(F)(F)F)cc1-c1ccc(OCc2ccc(Cl)cc2)cc1C=O [NUCC-0200976],3.9 µM,63.3 µM,21.8%,–
CCCOc1ccc(-c2cc(C(F)(F)F)n[nH]2)c(O)c1-c1cc(C(F)(F)F)cc(C(F)(F)F)c1 [NUCC-0201197],3.4 µM,18.6 µM,–,–
CCOC(=O)c1cc(-c2ccc(OCc3ccc(Cl)cc3)c(-c3cc(C(F)(F)F)cc(C(F)(F)F)c3)c2O)n[nH]1 [NUCC-0200972],5.1 µM,81 µM,60.3%,–
CCc1ccc(Oc2c(-c3ccc(OCc4ccc(Cl)c(Cl)c4)cc3O)n[nH]c2C(F)(F)F)cc1 [NUCC-0196355],11.8 µM,–,–,–
Cn1nc(C(F)(F)F)cc1-c1ccc(OCc2ccc(Cl)cc2)c(-c2cccc(C#N)c2)c1O [NUCC-0198399],2.5 µM,–,80.3%,–

Structure (SMILES),IC50 (MycCap cells),IC50 (PC12 cells),MLM % at 60 min [1],IC50 (MYC/Max binding to DNA)
Cn1nc(-c2ccc(OCc3ccc(Cl)cc3)c(-c3cncc(C#N)c3)c2O)cc1C(F)(F)F [NUCC-0201633],4.6 µM,27.3 µM,–,–
Cn1nc(-c2ccc(OCCCNC(=O)OC(C)(C)C)c(-c3cncc(C(F)(F)F)c3)c2O)cc1C(F)(F)F [NUCC-0201656],5.5 µM,18 µM,–,–
Oc1cc(OCc2ccc(Cl)cc2)ccc1-c1n[nH]cc1-c1ccoc1 [NUCC-0198322],6.5 µM,–,–,–
Oc1c(-c2cc(C(F)(F)F)[nH]n2)ccc(OCc2ccc(Cl)cc2)c1-c1cc(C(F)(F)F)cc(C(F)(F)F)c1 [NUCC-0196362],4 µM,–,–,102 µM
CCCCCCOc1ccc(-c2cc(C(F)(F)F)nn2C)c(O)c1-c1cncc(C(F)(F)F)c1 [NUCC-0201205],9.5 µM,36.3 µM,–,–
Oc1cc(OCc2ccc(Cl)cc2)ccc1-c1n[nH]c(C(F)(F)F)c1-c1ccccc1 [NUCC-0198295],4.6 µM,–,–,53.3 µM
COc1ccc(COc2ccc(-c3cc(C(F)(F)F)n[nH]3)c(O)c2-c2cc(C(F)(F)F)cc(C(F)(F)F)c2)cc1 [NUCC-0201041],12.6 µM,128 µM,–,–
CCCCCCOc1ccc(-c2cc(C(F)(F)F)n(C)n2)c(O)c1-c1cncc(C#N)c1 [NUCC-0201212],23.7 µM,30.8 µM,–,–
COc1ccc(-c2cc(C(F)(F)F)n(C)n2)c(O)c1-c1cc(C(F)(F)F)cc(C(F)(F)F)c1 [NUCC-0201221],1.2 µM,–,–,–
Cn1nc(-c2ccc(OCc3ccc(Cl)cc3)c(-c3cccc(C#N)c3)c2O)cc1C(N)=O [NUCC-0200558],49.3 µM,31 µM,–,–
O=C1CCC(N2C(=O)c3cccc(OCc4cn(CCOCCOCCOCC(=O)Nc5ccc(COc6ccc(-c7cc(C(F)(F)F)n[nH]7)c(O)c6-c6cc(C(F)(F)F)cc(C(F)(F)F)c6)cc5)nn4)c3C2=O)C(=O)N1 (stereo not drawn) [NUCC-0201202],4 µM,23.1 µM,–,–
CCCCOc1ccc(-c2cc(C(F)(F)F)n(C)n2)c(O)c1-c1cncc(C(F)(F)F)c1 [NUCC-0201209],4.4 µM,–,10.3%,–
CCCCOc1ccc(-c2cc(C(F)(F)F)n[nH]2)c(O)c1-c1ccc(Cl)c(C(F)(F)F)c1 [NUCC-0201225],19 µM,82.6 µM,–,–
Oc1c(-c2cc(C(F)(F)F)[nH]n2)ccc(Oc2ccc(Cl)cc2)c1-c1cc(C(F)(F)F)cc(C(F)(F)F)c1 [NUCC-0201223],5.1 µM,40.6 µM,75.8%,–
CCCCCCOc1ccc(-c2cc(C(F)(F)F)n[nH]2)c(O)c1-c1cc(C(F)(F)F)cc(C(F)(F)F)c1 [NUCC-0201196],4.5 µM,–,66.6%,–
Cn1nc(C(F)(F)F)cc1-c1ccc(OCc2ccc(Cl)cc2)c(Br)c1O [NUCC-0198407],7.8 µM,–,–,–
COc1ccc(-c2cc(C(F)(F)F)[nH]n2)c(O)c1-c1cc(C(F)(F)F)cc(C(F)(F)F)c1 [NUCC-0201220],4.9 µM,91.6 µM,–,–
CCc1ccc(Oc2c(-c3ccc(O)cc3O)n[nH]c2C(F)(F)F)cc1 [NUCC-0198406],17.5 µM,–,–,–
